Data: the supplement of paper PMC11451515

Assays:
NOMO1 [1] = assay: cell viability relative to DMSO control; higher = less cytotoxic; conditions: 48 h
Summary of the method: (§1)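 NOMO1 or SEM cells were plated at 500 cells/well and P12-Ichikawa cells at 1000 cells/well in 1536-well plates (5 μl), after each leukemia line had been adapted for at least four passages in each medium. Pin dosing delivered library compounds in DMSO at 11 threefold concentrations, 47 μM to 0.79 nM. CellTiter-Glo One luminescence was read after 48 h at 37°C. Viability is reported as a per-plate percentage of DMSO wells, with cell-free wells as background.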

P12-Ichikawa [2] = assay: as above; conditions: HPLM + 10% dialyzed FBS, 48 h
Summary of the method: as §1

SEM cells [3] = assay: as above; conditions: 48 h
Summary of the method: as §1

NOMO1 [4] = assay: AUC of viability dose-response curve (% viability x log10 dose units); higher = less sensitive; conditions: 48 h
Summary of the method: (§2)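 Leukemia cells adapted to each medium (500 or 1000 cells/well, 1536-well plates) were exposed to library compounds in DMSO for 48 h at 37°C at 11 threefold doses, 47 μM to 0.79 nM. Luminescence by CellTiter-Glo One was normalised per plate to DMSO and cell-free wells, then fitted with a four-parameter log-logistic curve on log10 dose. Curves above full viability were scaled and quality-control failures removed before area under the curve was integrated by trapezoidal rule.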

P12-Ichikawa [5] = assay: as above; conditions: 48 h
Summary of the method: as §2

SEM cells [6] = assay: as above; conditions: 48 h
Summary of the method: as §2

CCCCCCCCCCCCCCCCCCCCCCO
cell viability [%]
Conditions | HPLM + 10% dialyzed FBS | RPMI 5 mM glucose + 10% FBS | RPMI 5 mM glucose + 10% dialyzed FBS
NOMO1 [1], 0.000781 µM | 108 | – | 121
NOMO1 [1], 0.00234 µM | 134 | – | 107
NOMO1 [1], 0.00702 µM | 120 | – | 129
NOMO1 [1], 0.0211 µM | 140 | – | 128
NOMO1 [1], 0.0632 µM | 125 | – | 132
NOMO1 [1], 0.19 µM | 150 | – | 140
NOMO1 [1], 0.569 µM | 133 | – | 141
NOMO1 [1], 1.71 µM | 148 | – | 140
NOMO1 [1], 5.12 µM | 147 | – | 123
NOMO1 [1], 15.4 µM | 147 | – | 143
NOMO1 [1], 46.1 µM | 129 | – | 145
SEM cells [3], 0.000781 µM | 104 | 122 | 102
SEM cells [3], 0.00234 µM | 95 | 113 | 98.1
SEM cells [3], 0.00702 µM | 119 | 135 | 120
SEM cells [3], 0.0211 µM | 116 | 133 | 123
SEM cells [3], 0.0632 µM | 110 | 129 | 118
SEM cells [3], 0.19 µM | 110 | 146 | 115
SEM cells [3], 0.569 µM | 111 | 153 | 118
SEM cells [3], 1.71 µM | 127 | 156 | 132
SEM cells [3], 5.12 µM | 87.8 | 98.4 | 87
SEM cells [3], 15.4 µM | 123 | 138 | 116
SEM cells [3], 46.1 µM | 132 | 155 | 138

Conditions | AUC of viability dose-response curve | cell viability [%]
NOMO1 [4], HPLM + 10% dialyzed FBS | 458 | –
NOMO1 [4], RPMI 5 mM glucose + 10% FBS | 444 | –
NOMO1 [4], RPMI 5 mM glucose + 10% dialyzed FBS | 456 | –
P12-Ichikawa [2], 0.000781 µM | – | 122
P12-Ichikawa [2], 0.00234 µM | – | 125
P12-Ichikawa [2], 0.00702 µM | – | 118
P12-Ichikawa [2], 0.0211 µM | – | 125
P12-Ichikawa [2], 0.0632 µM | – | 126
P12-Ichikawa [2], 0.19 µM | – | 126
P12-Ichikawa [2], 0.569 µM | – | 132
P12-Ichikawa [2], 1.71 µM | – | 133
P12-Ichikawa [2], 5.12 µM | – | 127
P12-Ichikawa [2], 15.4 µM | – | 137
P12-Ichikawa [2], 46.1 µM | – | 140
P12-Ichikawa [5], HPLM + 10% dialyzed FBS | 445 | –
P12-Ichikawa [5], RPMI 5 mM glucose + 10% FBS | 461 | –
P12-Ichikawa [5], RPMI 5 mM glucose + 10% dialyzed FBS | 447 | –
SEM cells [6], HPLM + 10% dialyzed FBS | 444 | –
SEM cells [6], RPMI 5 mM glucose + 10% FBS | 460 | –
SEM cells [6], RPMI 5 mM glucose + 10% dialyzed FBS | 447 | –

CN(Cc1cnc2nc(N)nc(N)c2n1)c1ccc(C(=O)N[C@@H](CCC(=O)O)C(=O)O)cc1
Conditions | cell viability [%]
NOMO1 [1], RPMI 5 mM glucose + 10% FBS, 0.000781 µM | 116
NOMO1 [1], RPMI 5 mM glucose + 10% FBS, 0.00234 µM | 125
NOMO1 [1], RPMI 5 mM glucose + 10% FBS, 0.00702 µM | 123
NOMO1 [1], RPMI 5 mM glucose + 10% FBS, 0.0211 µM | 135
NOMO1 [1], RPMI 5 mM glucose + 10% FBS, 0.0632 µM | 121
NOMO1 [1], RPMI 5 mM glucose + 10% FBS, 0.19 µM | 136
NOMO1 [1], RPMI 5 mM glucose + 10% FBS, 0.569 µM | 107
NOMO1 [1], RPMI 5 mM glucose + 10% FBS, 1.71 µM | 104
NOMO1 [1], RPMI 5 mM glucose + 10% FBS, 5.12 µM | 73.1
NOMO1 [1], RPMI 5 mM glucose + 10% FBS, 15.4 µM | 26.7
NOMO1 [1], RPMI 5 mM glucose + 10% FBS, 46.1 µM | 24.4
SEM cells [3], HPLM + 10% dialyzed FBS, 0.000781 µM | 115
SEM cells [3], HPLM + 10% dialyzed FBS, 0.00234 µM | 141
SEM cells [3], HPLM + 10% dialyzed FBS, 0.00702 µM | 122
SEM cells [3], HPLM + 10% dialyzed FBS, 0.0211 µM | 133
SEM cells [3], HPLM + 10% dialyzed FBS, 0.0632 µM | 119
SEM cells [3], HPLM + 10% dialyzed FBS, 0.19 µM | 53.5
SEM cells [3], HPLM + 10% dialyzed FBS, 0.569 µM | 43
SEM cells [3], HPLM + 10% dialyzed FBS, 1.71 µM | 37
SEM cells [3], HPLM + 10% dialyzed FBS, 5.12 µM | 25.7
SEM cells [3], HPLM + 10% dialyzed FBS, 15.4 µM | 18
SEM cells [3], HPLM + 10% dialyzed FBS, 46.1 µM | 15.2

AUC of viability dose-response curve
Conditions | NOMO1 [4] | P12-Ichikawa [5] | SEM cells [6]
HPLM + 10% dialyzed FBS | 304 | 245 | 277
RPMI 5 mM glucose + 10% FBS | 390 | 277 | 328
RPMI 5 mM glucose + 10% dialyzed FBS | 278 | 258 | 249
